Measured values from patent publication US12508233B2, “Graft copolymers, methods of forming graft copolymers, and methods of use thereof” (Vanderbilt University, priority 2018, dated 2025).

Test system: THP-1 ISG reporter cells
Test: THP-1 ISG reporter cell assay in the context of cGAMP delivery
Type: cell-based
Details: free cGAMP, dashed line in FIG. 10C; read-out: Half-maximal response of cGAMP
Excerpt: The graft copolymers disclosed herein were next tested for bioactivity and drug delivery properties. As illustrated in FIGS. 9A-B, hemolysis, a measure of endosomolytic activity, increases with increasing MW and decreases with increasing hydrophilic weight fraction. Turning to FIGS. 10A-D, THP-1 ISG reporter cells were used to determine cellular uptake and cGAMP delivery.

In the case of `Nc1nc2c(ncn2[C@@H]2O[C@@H]3COP(=O)(O)O[C@H]4[C@@H](O)[C@H](n5cnc6c(N)ncnc65)O[C@@H]4COP(=O)(O)O[C@@H]2[C@@H]3O)c(=O)[nH]1` [cGAMP], the EC50 is reported as 40 µM.
